Assay results taken from ChEMBL document CHEMBL1201862, “PubChem BioAssay data set” (2004).
Calls of active or inactive are those of the source.

Assays:
[1] = biological target: Serine/threonine-protein kinase pim-1 (Homo sapiens, UniProt P11309); format: functional
[2] = biological target: Homeodomain-interacting protein kinase 2 (Homo sapiens, UniProt Q9H2X6); format: functional;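 further: measured within a kinome-wide kinase profiling panel, HIPK2 being one panel member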
[3] = biological target: Dual specificity protein kinase CLK4 (Homo sapiens, UniProt Q9HAZ1); format: functional
Chain of Dual specificity protein kinase CLK4 (Q9HAZ1 whole entry): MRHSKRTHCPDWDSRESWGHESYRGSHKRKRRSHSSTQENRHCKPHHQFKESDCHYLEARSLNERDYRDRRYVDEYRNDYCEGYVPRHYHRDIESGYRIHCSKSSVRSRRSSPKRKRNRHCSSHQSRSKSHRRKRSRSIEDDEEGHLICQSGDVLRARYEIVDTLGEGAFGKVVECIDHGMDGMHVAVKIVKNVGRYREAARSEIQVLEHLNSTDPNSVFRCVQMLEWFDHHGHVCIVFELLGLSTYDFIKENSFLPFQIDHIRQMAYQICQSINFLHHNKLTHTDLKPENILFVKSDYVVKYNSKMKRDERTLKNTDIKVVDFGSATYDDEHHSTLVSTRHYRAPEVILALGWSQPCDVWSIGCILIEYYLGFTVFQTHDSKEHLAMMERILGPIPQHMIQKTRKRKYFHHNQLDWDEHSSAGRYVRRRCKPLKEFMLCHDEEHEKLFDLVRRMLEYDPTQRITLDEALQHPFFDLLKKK

[4] = biological target: Cell division cycle 7-related protein kinase (Homo sapiens, UniProt O00311); format: functional;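 further: value obtained from a kinome-wide kinase panel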
Chain of Cell division cycle 7-related protein kinase (O00311 whole entry): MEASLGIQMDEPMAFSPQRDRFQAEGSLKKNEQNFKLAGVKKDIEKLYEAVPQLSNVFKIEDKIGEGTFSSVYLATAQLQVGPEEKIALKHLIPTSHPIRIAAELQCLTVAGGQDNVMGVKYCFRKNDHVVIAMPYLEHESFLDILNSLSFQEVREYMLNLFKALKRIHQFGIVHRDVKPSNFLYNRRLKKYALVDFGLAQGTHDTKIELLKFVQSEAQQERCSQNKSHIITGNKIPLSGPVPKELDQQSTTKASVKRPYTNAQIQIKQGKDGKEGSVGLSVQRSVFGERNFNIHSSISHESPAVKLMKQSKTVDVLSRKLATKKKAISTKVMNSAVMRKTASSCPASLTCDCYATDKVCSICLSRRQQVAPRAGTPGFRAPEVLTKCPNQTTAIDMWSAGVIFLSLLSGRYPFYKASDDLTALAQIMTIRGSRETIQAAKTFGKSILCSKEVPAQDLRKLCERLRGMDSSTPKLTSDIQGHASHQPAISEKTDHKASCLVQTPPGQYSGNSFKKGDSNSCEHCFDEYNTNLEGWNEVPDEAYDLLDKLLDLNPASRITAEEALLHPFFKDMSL

[5] = biological target: Glycogen synthase kinase-3 beta (Homo sapiens, UniProt P49841); format: functional;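 further: value comes from a broad kinome profiling panel, with GSK3B as the panel member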
Chain of Glycogen synthase kinase-3 beta (P49841 whole entry): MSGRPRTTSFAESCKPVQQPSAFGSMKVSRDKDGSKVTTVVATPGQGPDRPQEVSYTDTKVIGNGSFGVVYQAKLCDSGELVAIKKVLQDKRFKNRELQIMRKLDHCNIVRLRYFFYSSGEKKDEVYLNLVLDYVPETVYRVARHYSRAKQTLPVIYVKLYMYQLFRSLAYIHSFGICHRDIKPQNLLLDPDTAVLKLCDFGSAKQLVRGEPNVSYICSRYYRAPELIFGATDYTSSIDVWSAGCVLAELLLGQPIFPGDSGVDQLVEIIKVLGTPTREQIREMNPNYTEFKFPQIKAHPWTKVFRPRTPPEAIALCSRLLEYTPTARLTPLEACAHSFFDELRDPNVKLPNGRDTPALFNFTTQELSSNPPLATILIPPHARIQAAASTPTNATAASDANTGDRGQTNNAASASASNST

[6] = biological target: T1, Interleukin-1 receptor-associated kinase 4 (Homo sapiens, UniProt Q9NWZ3); format: functional
T1 sequence (Q9NWZ3 whole entry): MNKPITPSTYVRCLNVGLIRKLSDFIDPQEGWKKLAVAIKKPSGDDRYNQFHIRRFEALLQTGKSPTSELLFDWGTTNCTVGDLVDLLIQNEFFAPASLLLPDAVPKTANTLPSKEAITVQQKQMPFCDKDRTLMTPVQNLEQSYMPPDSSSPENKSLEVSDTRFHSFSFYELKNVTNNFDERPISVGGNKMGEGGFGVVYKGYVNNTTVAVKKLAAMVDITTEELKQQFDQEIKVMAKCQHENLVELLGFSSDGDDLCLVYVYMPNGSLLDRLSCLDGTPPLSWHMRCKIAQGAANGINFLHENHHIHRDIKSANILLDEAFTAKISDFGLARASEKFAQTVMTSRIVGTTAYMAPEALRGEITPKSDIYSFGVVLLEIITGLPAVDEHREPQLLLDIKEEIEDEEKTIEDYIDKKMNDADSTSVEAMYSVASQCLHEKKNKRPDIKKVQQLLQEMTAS

[7] = biological target: cAMP-dependent protein kinase catalytic subunit alpha (Homo sapiens, UniProt P17612); format: functional
[8] = C. albicans growth with fluconazole, confirmation, fluorescence, retest (AID 2467); format: functional, cell-based
[9] = biological target: ATP-dependent molecular chaperone HSP82 (Candida albicans (strain WO-1) (Yeast), UniProt C4YTQ8); assay: loss of DOC-induced GRE-beta-galactosidase reporter signal, dose response, Hsp90 inhibitor project, S. cerevisiae, luminescence (AID 2400); format: functional, cell-based;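 further: beta-galactosidase luminescence from glucocorticoid response element reporter as proxy for Hsp90 function; inhibitor potency where signal loss means Hsp90 inhibition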
Chain of ATP-dependent molecular chaperone HSP82 (C4YTQ8 whole entry): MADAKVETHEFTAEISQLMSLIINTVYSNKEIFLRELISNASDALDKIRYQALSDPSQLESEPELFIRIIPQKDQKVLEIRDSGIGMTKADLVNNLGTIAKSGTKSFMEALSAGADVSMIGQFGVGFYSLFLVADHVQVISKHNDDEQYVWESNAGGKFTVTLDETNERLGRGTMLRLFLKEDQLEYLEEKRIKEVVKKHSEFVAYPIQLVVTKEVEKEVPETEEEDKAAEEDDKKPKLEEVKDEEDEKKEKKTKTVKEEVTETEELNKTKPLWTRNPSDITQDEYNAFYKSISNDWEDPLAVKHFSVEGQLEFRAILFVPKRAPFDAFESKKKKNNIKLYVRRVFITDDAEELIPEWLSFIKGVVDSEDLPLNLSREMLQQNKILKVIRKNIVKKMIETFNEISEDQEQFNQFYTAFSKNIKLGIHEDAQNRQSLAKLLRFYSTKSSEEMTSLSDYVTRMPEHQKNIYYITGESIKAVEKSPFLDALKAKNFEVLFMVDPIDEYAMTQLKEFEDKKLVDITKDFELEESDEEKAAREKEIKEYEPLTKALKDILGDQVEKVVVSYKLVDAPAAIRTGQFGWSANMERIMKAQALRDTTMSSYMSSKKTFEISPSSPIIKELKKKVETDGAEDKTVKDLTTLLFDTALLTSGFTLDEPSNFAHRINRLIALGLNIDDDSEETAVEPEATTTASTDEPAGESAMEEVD

cells [10] = format: functional
[11] = NIH-3T3 fibroblast cytotoxicity, dose response, cytotoxicity control, cell-based, fluorescence, Alamar Blue, secondary assay (AID 2327); format: functional;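 further: NIH-3T3 mouse fibroblasts cultured with fluconazole at 8 µg/mL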
[12] = biological target: T2, Serine/threonine-protein phosphatase (Candida dubliniensis (strain CD36 / CBS 7987 / NCPF 3949 / NRRLY-17841) (Yeast), UniProt B9W6M3); assay: calcineurin pathway inhibitors in yeast reporter, dose response, S. cerevisiae, CDRE-lacZ, luminescence, secondary (AID 2388); format: functional, cell-based;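 further: yeast reporter cells carrying a calcineurin-responsive lacZ construct stimulated with calcium chloride; luminescent beta-galactosidase reporter signal in whole cells rather than isolated phosphatase activity; potency for inhibition where a drop in reporter signal means calcineurin blockade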
T2 sequence (B9W6M3 whole entry): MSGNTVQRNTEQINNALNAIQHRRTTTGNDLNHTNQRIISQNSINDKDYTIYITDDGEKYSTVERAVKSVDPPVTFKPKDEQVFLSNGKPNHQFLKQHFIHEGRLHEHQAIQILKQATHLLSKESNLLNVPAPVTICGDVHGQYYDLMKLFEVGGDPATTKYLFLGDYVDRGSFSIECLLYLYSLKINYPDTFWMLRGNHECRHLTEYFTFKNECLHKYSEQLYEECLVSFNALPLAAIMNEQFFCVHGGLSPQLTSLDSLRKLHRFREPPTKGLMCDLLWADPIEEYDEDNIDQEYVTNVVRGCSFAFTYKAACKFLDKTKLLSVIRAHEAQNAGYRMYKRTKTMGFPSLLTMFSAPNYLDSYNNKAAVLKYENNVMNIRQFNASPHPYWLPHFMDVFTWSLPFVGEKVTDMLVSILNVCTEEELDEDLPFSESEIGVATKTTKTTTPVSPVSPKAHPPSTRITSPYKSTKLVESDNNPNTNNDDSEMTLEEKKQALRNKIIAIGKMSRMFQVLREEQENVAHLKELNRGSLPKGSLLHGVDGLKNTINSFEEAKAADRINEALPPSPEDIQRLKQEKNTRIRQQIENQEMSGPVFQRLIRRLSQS

cells [13] = format: functional, cell-based
Streptococcus = assay: Group A Streptococcus viability loss, dose response, counter-screen for streptokinase expression inhibitor project, luminescence, BacTiterGlo (AID 1915); format: functional, organism-based;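 further: potency for reduction of bacterial viability or growth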
[14] = Shn3 3'UTR reporter inhibitors, dose response, cell-based, Clone20 osteoblasts, firefly luciferase, cherry-picked (AID 624132); format: functional;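 further: firefly luciferase luminescence from reporter carrying the Shn3 3'UTR in osteoblasts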
INS1 = assay: beta cell apoptosis inhibitors, cytokine rescue, dose response, luminescence, retest (AID 449756); format: functional, cell-based; conditions: Rattus norvegicus;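 further: cell death triggered by IL-1 beta plus TNF-alpha plus IFN-gamma mixture; protective hits raise ATP signal compared with cytokine alone wells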
[15] = cytotoxicity toward NIH3T3 fibroblasts, dose response, counter-screen, cell-based, ATP luminescence, mouse fibroblasts (AID 2010); format: functional;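 further: cells exposed to compound for about 90 hours before reading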
[16] = test system: Streptococcus sp. 'group A'; assay: growth inhibition of control SK(-) GAS strain, dose response, counter-screen for streptokinase expression inhibitor project, luminescence, kanamycin, BacTiterGlo, confirmation (AID 1900); format: functional, organism-based
[17] = inhibitors of SNCA 5'UTR-driven reporter translation, confirmation, H4 neuroglioma cells, luminescence (AID 1988); format: functional, cell-based
[18] = Luminescence Cell-Based Dose Response HTS to Identify Inhibitors of 5'UTR Stem-Loop Driven Prion Protein mRNA Translation in H4 Neuroglioblastoma Cells. [Related pubchem assays: 1827 (Project Summary), 1813 (Primary HTS)]; format: functional
[19] = control 3'UTR Renilla luciferase suppression, dose response, counter-screen for Shn3 inhibitor project, cell-based, Clone20-Shn3RL, cherry-picked (AID 624133); format: functional
cells [20] = format: functional, cell-based; remark: listed apart in the source
[21] = inhibitors of firefly luciferase expression or activity, dose response, H4 neuroglioma cells, luminescence (AID 1990); format: functional, cell-based
[22] = biological target: Heat shock protein HSP 90-alpha (Homo sapiens, UniProt P07900); format: functional, organism-based
[23] = inhibitors of intracellular T. cruzi replication, confirmation, NIH3T3 host cells, beta-gal luminescence (AID 2044); format: functional, cell-based;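 further: intracellular parasites grown in NIH/3T3 mouse fibroblasts as host cells; luminescent beta-galactosidase reporter signal from transgenic T. cruzi replicating inside host cells; inhibitors lower the luminescence signal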
Streptokinase A = biological target: T3, Streptokinase A (Streptococcus pyogenes serotype M1, UniProt P10520); assay: S. pyogenes streptokinase expression inhibitors, potency, dose response, plasminogen activation absorbance, OD405 (AID 1914); format: functional, Streptococcus pyogenes M1 GAS;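 further: secreted streptokinase activity via plasminogen activation per viability signal from cell pellet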
T3 sequence (P10520 whole entry): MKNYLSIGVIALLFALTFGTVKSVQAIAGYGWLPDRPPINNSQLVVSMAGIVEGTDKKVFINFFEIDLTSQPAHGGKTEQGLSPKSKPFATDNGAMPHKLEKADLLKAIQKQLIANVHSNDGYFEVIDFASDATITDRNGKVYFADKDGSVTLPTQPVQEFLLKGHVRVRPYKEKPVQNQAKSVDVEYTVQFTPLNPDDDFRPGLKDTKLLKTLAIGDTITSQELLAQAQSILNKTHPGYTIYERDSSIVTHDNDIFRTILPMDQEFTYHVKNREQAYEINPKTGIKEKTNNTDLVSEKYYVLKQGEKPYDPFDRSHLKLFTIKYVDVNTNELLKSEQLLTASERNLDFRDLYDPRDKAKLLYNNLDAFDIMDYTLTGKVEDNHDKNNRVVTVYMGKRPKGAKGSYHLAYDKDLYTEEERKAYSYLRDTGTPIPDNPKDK

[24] = HepG2 cell cytotoxicity, dose response, cytotoxicity control for Shn3 inhibitor project, CellTiter-Glo, cherry-picked (AID 624134); format: functional, cell-based
[25] = HepG2 cell cytotoxicity, dose response, cytotoxicity control for non-replicating M. tuberculosis project (AID 489018); format: functional; conditions: Mycobacterium tuberculosis
[26] = THP-1 cell cytotoxicity, dose response, cytotoxicity control for non-replicating M. tuberculosis project (AID 489025); format: functional
[27] = microbe, parasite or virus in culture; format: functional; conditions: Mycobacterium tuberculosis
[28] = Vero E6 cell cytotoxicity, dose response, cytotoxicity control for non-replicating M. tuberculosis project, secondary assay (AID 492998); format: functional, VeroE6; conditions: Vero C1008
[29] = biological target: Mitogen-activated protein kinase kinase kinase kinase 4 (Homo sapiens, UniProt O95819); format: functional
Chain of Mitogen-activated protein kinase kinase kinase kinase 4 (O95819 whole entry): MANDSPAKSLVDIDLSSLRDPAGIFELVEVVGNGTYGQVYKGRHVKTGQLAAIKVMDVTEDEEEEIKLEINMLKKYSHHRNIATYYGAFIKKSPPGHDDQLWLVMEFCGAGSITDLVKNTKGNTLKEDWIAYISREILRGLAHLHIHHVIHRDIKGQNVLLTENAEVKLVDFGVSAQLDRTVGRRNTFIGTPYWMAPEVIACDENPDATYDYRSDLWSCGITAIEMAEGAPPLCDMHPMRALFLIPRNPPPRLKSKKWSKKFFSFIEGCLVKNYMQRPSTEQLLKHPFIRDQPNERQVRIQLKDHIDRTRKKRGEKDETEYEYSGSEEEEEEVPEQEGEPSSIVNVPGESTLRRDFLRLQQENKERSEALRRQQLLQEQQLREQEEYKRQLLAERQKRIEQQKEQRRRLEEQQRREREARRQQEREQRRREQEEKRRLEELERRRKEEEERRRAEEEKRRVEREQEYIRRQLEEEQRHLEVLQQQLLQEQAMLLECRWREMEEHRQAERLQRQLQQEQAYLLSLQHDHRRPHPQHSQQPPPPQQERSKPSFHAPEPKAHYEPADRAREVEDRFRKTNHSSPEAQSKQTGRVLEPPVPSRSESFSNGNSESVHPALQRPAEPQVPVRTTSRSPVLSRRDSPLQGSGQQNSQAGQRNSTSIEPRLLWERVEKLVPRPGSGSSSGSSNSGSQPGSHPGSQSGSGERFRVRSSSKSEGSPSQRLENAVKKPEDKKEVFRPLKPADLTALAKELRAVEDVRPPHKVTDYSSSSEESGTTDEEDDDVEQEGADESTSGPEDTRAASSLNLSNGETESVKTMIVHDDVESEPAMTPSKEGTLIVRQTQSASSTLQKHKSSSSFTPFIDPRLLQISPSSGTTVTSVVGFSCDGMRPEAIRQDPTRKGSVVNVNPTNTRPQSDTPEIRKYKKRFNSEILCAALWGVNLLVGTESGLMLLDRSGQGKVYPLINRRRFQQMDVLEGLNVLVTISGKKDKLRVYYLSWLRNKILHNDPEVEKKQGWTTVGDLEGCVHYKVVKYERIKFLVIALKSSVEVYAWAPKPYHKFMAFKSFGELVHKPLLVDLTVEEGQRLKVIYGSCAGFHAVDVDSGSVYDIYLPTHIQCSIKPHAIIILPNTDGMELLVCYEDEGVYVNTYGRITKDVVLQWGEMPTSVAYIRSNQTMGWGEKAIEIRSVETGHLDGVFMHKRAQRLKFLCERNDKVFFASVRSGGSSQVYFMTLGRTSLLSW

[30] = biological target: T4, Short transient receptor potential channel 4 (Mus musculus, UniProt Q9QUQ5); assay: mouse TRPC4 channel inhibitors, dose response, cell-based, HEK293 TRPC4/mu-opioid, Fluo-4 calcium (AID 434942); format: functional;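 further: potency of inhibitors blocking the TRPC4 calcium response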
T4 sequence (Q9QUQ5 whole entry): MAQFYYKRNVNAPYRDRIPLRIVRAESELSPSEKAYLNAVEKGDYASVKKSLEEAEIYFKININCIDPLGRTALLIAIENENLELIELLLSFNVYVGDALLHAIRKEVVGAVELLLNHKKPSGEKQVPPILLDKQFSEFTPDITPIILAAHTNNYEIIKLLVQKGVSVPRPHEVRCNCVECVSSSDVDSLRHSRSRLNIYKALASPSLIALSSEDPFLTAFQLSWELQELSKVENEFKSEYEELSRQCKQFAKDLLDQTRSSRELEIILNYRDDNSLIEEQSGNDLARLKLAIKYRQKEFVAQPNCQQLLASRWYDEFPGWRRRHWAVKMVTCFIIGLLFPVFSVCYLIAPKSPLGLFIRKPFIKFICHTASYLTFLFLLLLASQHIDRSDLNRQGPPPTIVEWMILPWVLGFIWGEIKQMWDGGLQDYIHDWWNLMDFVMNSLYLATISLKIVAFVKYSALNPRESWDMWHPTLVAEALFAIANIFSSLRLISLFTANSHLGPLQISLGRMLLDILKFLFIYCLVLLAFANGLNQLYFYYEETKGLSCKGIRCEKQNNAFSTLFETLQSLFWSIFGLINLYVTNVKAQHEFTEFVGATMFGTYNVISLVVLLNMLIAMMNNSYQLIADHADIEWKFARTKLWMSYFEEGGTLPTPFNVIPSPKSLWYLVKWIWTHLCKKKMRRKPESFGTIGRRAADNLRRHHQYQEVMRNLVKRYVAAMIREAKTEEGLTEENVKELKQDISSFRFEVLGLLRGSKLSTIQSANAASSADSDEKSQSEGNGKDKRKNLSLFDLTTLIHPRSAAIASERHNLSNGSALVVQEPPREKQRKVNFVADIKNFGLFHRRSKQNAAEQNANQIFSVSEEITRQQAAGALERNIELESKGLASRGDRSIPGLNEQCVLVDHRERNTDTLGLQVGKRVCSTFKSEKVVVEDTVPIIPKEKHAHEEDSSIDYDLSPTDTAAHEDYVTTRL

Chain of Homeodomain-interacting protein kinase 2 (Q9H2X6 whole entry): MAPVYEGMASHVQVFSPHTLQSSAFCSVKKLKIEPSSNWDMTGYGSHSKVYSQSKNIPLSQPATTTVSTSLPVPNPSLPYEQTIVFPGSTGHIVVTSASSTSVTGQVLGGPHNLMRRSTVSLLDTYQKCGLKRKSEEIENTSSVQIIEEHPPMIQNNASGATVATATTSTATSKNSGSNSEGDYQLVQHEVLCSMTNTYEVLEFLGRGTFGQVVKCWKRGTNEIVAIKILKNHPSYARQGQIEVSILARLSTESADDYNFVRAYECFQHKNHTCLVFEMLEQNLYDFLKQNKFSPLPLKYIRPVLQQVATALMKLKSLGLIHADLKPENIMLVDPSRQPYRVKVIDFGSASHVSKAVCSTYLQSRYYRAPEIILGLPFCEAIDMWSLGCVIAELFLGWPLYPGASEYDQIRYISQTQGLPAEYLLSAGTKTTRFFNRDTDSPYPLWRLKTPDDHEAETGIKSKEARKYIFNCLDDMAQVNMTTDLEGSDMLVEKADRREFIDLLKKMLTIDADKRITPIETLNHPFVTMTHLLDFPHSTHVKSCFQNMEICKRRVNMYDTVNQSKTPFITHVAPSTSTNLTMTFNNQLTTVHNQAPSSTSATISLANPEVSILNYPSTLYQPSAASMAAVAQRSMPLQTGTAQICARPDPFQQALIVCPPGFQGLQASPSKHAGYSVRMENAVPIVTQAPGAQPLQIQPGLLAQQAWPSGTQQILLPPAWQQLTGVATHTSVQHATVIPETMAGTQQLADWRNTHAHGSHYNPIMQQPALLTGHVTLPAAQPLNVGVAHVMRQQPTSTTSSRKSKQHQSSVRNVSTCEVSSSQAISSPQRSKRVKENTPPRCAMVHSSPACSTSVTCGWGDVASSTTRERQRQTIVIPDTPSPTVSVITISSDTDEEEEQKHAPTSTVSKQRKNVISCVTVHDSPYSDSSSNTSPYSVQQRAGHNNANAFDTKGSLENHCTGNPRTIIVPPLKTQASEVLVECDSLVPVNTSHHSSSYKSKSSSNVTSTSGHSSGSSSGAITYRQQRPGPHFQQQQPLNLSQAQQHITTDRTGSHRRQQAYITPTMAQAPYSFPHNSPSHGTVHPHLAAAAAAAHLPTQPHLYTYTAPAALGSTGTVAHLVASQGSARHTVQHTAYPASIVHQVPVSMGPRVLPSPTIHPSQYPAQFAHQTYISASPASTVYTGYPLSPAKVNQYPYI
Chain of Serine/threonine-protein kinase pim-1 (P11309 whole entry): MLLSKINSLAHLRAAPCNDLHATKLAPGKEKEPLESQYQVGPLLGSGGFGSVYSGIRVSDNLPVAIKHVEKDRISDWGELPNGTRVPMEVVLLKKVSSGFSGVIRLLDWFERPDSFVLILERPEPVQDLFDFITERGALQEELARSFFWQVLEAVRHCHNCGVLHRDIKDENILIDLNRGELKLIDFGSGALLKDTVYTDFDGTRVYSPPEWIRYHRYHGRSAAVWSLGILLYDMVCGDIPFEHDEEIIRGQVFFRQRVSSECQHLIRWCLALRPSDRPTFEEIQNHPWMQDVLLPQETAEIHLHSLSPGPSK

Compound	Ki [1]	Ki [2]	Ki [3]	Ki [4]	Ki [5]	Ki [6]	Ki [7]	EC50 [8]	EC50 [9]	EC50 [11]	EC50 [12]	other results
C=CCNc1cc(-c2c[nH]c3ncccc23)cc(Cl)n1	794 nM (active)	50.1 nM (active)	3.98 nM (active)	0.794 nM (active)	100 nM (active)	631 nM (active)	398 nM (active)					
Cc1cc(Br)ccc1OCC(=O)NNC(=O)C(=O)Nc1ccccc1								526 nM (active)	> 150000 nM (inactive)	> 150000 nM (inactive)	> 180000 nM (inactive)	IC50 (cells [10]): 12200 nM (active)
Oc1c(CN2CCN(c3ccc(F)cc3)CC2)cc(Cl)c2cccnc12								693 nM (active)	> 160000 nM (inactive)	26100 nM (active)	> 180000 nM (inactive)	EC50 (cells [13]): > 350000 nM (not active); EC50 (Streptococcus): 10800 nM (active); AC50 [14]: 1320 nM (active); AC50 (INS1): 1270 nM (active); EC50 [15]: 8200 nM (active); EC50 [16]: 1560 nM (active); EC50 [17]: 192 nM (active); EC50 [18]: 157 nM (active); AC50 [19]: 534 nM (active); EC50 (cells [20]): 69400 nM (active); EC50 [21]: 200 nM (active); AC50 [22]: 7920 nM (active); EC50 [23]: 465 nM (active); EC50 (Streptokinase A): > 150000 nM (not active); AC50 [24]: > 70000 nM (inactive)
O=c1c2ccc(Cl)cc2nc(-c2ccc([N+](=O)[O-])cc2)n1O								430 nM (active)	44600 nM (active)	99400 nM (active)	> 180000 nM (inactive)	IC50 (cells [10]): 8170 nM (active); CC50 [25]: 16800 nM (active); CC50 [26]: 11800 nM (active); CC50 [27]: 21400 nM (active); CC50 [28]: 12100 nM (active)
Fc1cccc(-c2c[nH]c3ncccc23)c1	7940 nM (active)	1000 nM (active)	39.8 nM (active)	63.1 nM (active)	2000 nM (active)	2510 nM (active)	2510 nM (active)					Ki [29]: 3.16 nM (active)
CCCCCCCNC(=O)COc1ccc2c(c1)C(=O)CC(C)(C)O2								2280 nM (active)	> 160000 nM (inactive)	> 160000 nM (inactive)	> 180000 nM (inactive)	EC50 [30]: 944 nM (active)
CCCCOc1cc(-c2ccncc2)cc2[nH]nc(N)c12	1580 nM (active)	794 nM (active)	10 nM (active)	15.8 nM (active)	631 nM (active)	631 nM (active)	1260 nM (active)					Ki [29]: 251 nM (active)
CCOc1ccc(-c2ccc(NS(=O)(=O)c3ccc([N+](=O)[O-])cc3)cc2)nn1								2360 nM (active)	> 150000 nM (inactive)	50700 nM (active)	> 180000 nM (inactive)	
